Test results published in US20240124442A1, “TRICYCLIC-AMIDO-BICYCLIC PRMT5 INHIBITORS” (AMGEN INC., priority 2021, published 2024).
Read-outs that look alike come from different tables or passages of the source.

Tests used:
HCT116 MTAP null cells = assay: HCT116 MTAP null cell line proliferation / cell viability (CellTiter-Glo, 6 days); assay type: cell-based; conditions: HCT116 MTAP null cells, 6 days treatment, CellTiter-Glo cell viability, read-out: HCT-116 MTAP null IC50
In short: (§1)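 Viability read by CellTiter-Glo luminescence after 6 days of compound treatment of HCT116 WT and MTAP-null cells (RPMI 1640, 10% FBS). Dose series were 1:3 steps from 1 or 10 μM (8–9 points), or 1:2 steps from 10 or 50 μM (22 points). IC50 from 4-parameter logistic or fixed-slope sigmoidal fit.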

HCT116 WT cells = assay: HCT116 WT (parent) cell line proliferation / cell viability (CellTiter-Glo, 6 days); assay type: cell-based; conditions: 6 days treatment
In short: as §1

| SMILES | IC50 (HCT116 MTAP null cells; 144 h) | IC50 (HCT116 WT cells; Homo sapiens, HCT-116, 144 h) | IC50 (HCT116 MTAP null cells) | IC50 (HCT116 WT cells; read-out: HCT-116 WT IC50) |
| --- | --- | --- | --- | --- |
| CN(C(=O)c1cc2c(cc1Cl)nc(N)c1cnn(C)c12)[C@@H]1COc2cc(C(F)(F)F)ccc21 [Example 480, 4-amino-7-chloro-N,1-dimethyl-N-((3S)-6-(trifluoromethyl)-2,3-dihydro-1-benzofuran-3-yl)-1H-pyrazolo[4,3-c]quinoline-8-carboxamide] | 4 nM | 43 nM | – | – |
| COc1ccc2c(c1)COC[C@H]2N(C)C(=O)c1cc2c(cc1F)nc(N)c1cnn(C)c12 (single isomer, unassigned) [Example 427] | 8 nM | 247 nM | – | – |
| CN(C(=O)c1cc2c3c(c(N)nc2cc1Cl)COC3)[C@@H]1COCc2nc(C(F)(F)F)ccc21 [Example 274, 4-amino-7-chloro-N-methyl-N-((5S)-2-(trifluoromethyl)-5,8-dihydro-6H-pyrano[3,4-b]-pyridin-5-yl)-1,3-dihydrofuro-[3,4-c]quinoline-8-carboxamide] | 4 nM | 229 nM | – | – |
| CN(C(=O)c1ccc2nc(N)c3cnn(C)c3c2c1)[C@H]1COCc2cc(-c3ccc(C(F)(F)F)cc3)ccc21 (single isomer, unassigned) [Example 670] | 536 nM | 1120 nM | – | – |
| Cc1nn(C)c2c1c(N)nc1cc(F)c(C(=O)N(C)[C@H]3COc4cc(S(F)(F)(F)(F)F)ccc43)cc12 (single isomer, unassigned) [Example 392] | 995 nM | 8300 nM | – | – |
| CN(C(=O)c1cc2c3c(c(N)nc2cn1)COC3)[C@@H]1COc2cc(OC(F)(F)F)ccc21 [Example 206, 4-amino-N-methyl-N-((3S)-6-(trifluoromethoxy)-2,3-dihydro-1-benzofuran-3-yl)-1,3-dihydrofuro[3,4-c][1,7]-naphthyridine-8-carboxamide] | 100 nM | 9790 nM | – | – |
| Cc1nn(C)c2c1c(N)nc1cnc(C(=O)N(C)[C@@H]3COc4cc(S(F)(F)(F)(F)F)ccc43)cc12 [Example 266, 4-amino-N,1,3-trimethyl-N-((3S)-6-(pentafluoro-lambda~6~-sulfanyl)-2,3-dihydro-1-benzofuran-3-yl)-1H-pyrazolo[4,3-c][1,7]naph-thyridine-8-carboxamide] | 70 nM | 2660 nM | – | – |
| CN(C(=O)c1cc2c3c(c(N)nc2cn1)COC3)[C@H]1COc2cc(OC(F)(F)F)ccc21 [Example 207, 4-amino-N-methyl-N-((3R)-6-(trifluoromethoxy)-2,3-dihydro-1-benzofuran-3-yl)-1,3-dihydrofuro[3,4-c][1,7]-naphthyridine-8-carboxamide] | 6060 nM | 23200 nM | – | – |
| CN(C(=O)c1ccc2nc(N)c3cnn(C)c3c2c1)[C@@H]1COc2cc(Br)cnc21 [Example 235, 4-amino-N-((3S)-6-bromo-2,3-dihydrofuro[3,2-b]pyridin-3-yl)-N,1-dimethyl-1H-pyrazolo[4,3-c]quinoline-8-carboxamide] | 219 nM | 10000 nM | – | – |
| CN(C(=O)c1cc2c(cc1F)nc(N)c1cnn(C)c12)[C@@H]1COCc2ncccc21 (single isomer, unassigned) [Example 423] | 39 nM | 1610 nM | – | – |
| CN(C(=O)c1ccc2nc(N)c3c(c2c1)COC3)[C@H]1COc2cc([N+](=O)[O-])ccc21 (single isomer, unassigned) [Example 320] | – | – | 3660 nM | 36400 nM |
| Cc1n[nH]c2c1c(N)nc1cnc(C(=O)N(C)[C@@H]3COc4cc(C(F)(F)F)ccc43)cc12 [Example 264, 4-amino-N,3-dimethyl-N-((3S)-6-(trifluoromethyl)-2,3-dihydro-1-benzofuran-3-yl)-1H-pyrazolo[4,3-c][1,7]naph-thyridine-8-carboxamide] | 70 nM | 5110 nM | – | – |
| CN(C(=O)c1cc2c3c(c(N)nc2cn1)COC3)[C@H]1COc2cc(C(F)(F)F)cc(F)c21 (single isomer, unassigned) [Example 546] | 9590 nM | 30700 nM | – | – |
| CN(C(=O)c1cc2c(cc1F)nc(N)c1cnn(C)c12)[C@@H]1COc2cc(OC(F)(F)F)ccc21 [Example 478, 4-amino-7-fluoro-N,1-dimethyl-N-((3S)-6-(trifluoromethoxy)-2,3-dihydro-1-benzofuran-3-yl)-1H-pyrazolo[4,3-c]quinoline-8-carboxamide] | 5 nM | 133 nM | – | – |
| CN(C(=O)c1ccc2nc(N)c3cnn(C)c3c2c1)[C@@H]1COc2cc(-c3ccc4c(c3)OC(F)(F)O4)ccc21 [Example 657, 4-amino-N-((3S)-6-(2,2-difluoro-1,3-benzodioxol-5-yl)-2,3-dihydro-1-benzofuran-3-yl)-N,1-dimethyl-1H-pyrazolo[4,3-c]quinoline-8-carboxamide] | 37 nM | 1710 nM | – | – |
| CN(C(=O)c1cc2c3c(c(N)nc2cn1)COC3)[C@@H]1COc2cc(C(F)(F)F)ccc21 (single isomer, unassigned) [Example 522] | 63 nM | 2470 nM | – | – |

| SMILES | IC50 (HCT116 MTAP null cells; 144 h) | IC50 (HCT116 WT cells; Homo sapiens, HCT-116, 144 h) | IC50 (HCT116 MTAP null cells) | IC50 (HCT116 WT cells; read-out: HCT-116 WT IC50) |
| --- | --- | --- | --- | --- |
| CN(C(=O)c1cc2c(cc1F)nc(N)c1cnn(C)c12)[C@H]1CC(C)(C)Cc2nc(C(F)(F)F)ccc21 (single isomer, unassigned) [Example 435] | 320 nM | 13400 nM | – | – |
| CN(C(=O)c1cc2c(cc1F)nc(N)c1cnn(C)c12)[C@@H]1COc2cc(-c3cnn(C(F)(F)F)c3)ccc21 [Example 247, 4-amino-7-fluoro-N,1-dimethyl-N-((3S)-6-(1-(trifluoromethyl)-1H-pyrazol-4-yl)-2,3-dihydro-1-benzofuran-3-yl)-1H-pyrazolo[4,3-c]quinoline-8-carboxamide] | 5 nM | 304 nM | – | – |
| CN(C(=O)c1cc2c(cc1F)nc(N)c1cnn(C)c12)C1CSc2cc(Br)ccc21 (racemic) [Example 479, 4-amino-N-((3R)-6-bromo-2,3-dihydro-1-benzothiophen-3-yl)-7-fluoro-N,1-dimethyl-1H-pyrazolo[4,3-c]quinoline-8-carboxamide and 4-amino-N-((3S)-6-bromo-2,3-dihydro-1-benzothiophen-3-yl)-7-fluoro-N,1-dimethyl-1H-pyrazolo[4,3-c]quinoline-8-carboxamide] | 23 nM | 710 nM | – | – |
| Cc1nn(C)c2c1c(N)nc1cc(F)c(C(=O)N(C)[C@@H]3COc4cc(S(F)(F)(F)(F)F)ccc43)cc12 (single isomer, unassigned) [Example 391] | 38 nM | 1040 nM | – | – |
| CN(C(=O)c1ccc2nc(N)c3ccncc3c2c1)[C@@H]1COCc2nc(C(F)(F)F)ccc21 [Example 279, 5-amino-N-methyl-N-((5S)-2-(trifluoromethyl)-5,8-dihydro-6H-pyrano[3,4-b]pyridin-5-yl)benzo[c][2,6]naphthyridine-9-carboxamide] | 17 nM | 706 nM | – | – |
| COc1ccc2c(c1)COC[C@H]2N(C)C(=O)c1cc2c3c(c(N)nc2cc1F)COC3 (single isomer, unassigned) [Example 400] | 50 nM | 2110 nM | – | – |
| Cc1noc2c1c(N)nc1cc(F)c(C(=O)N(C)[C@@H]3COc4cc(C(F)(F)F)ccc43)cc12 [Example 225, 4-amino-7-fluoro-N,3-dimeth-yl-N-((3S)-6-(trifluoromethyl)-2,3-dihydro-1-benzofuran-3-yl)[1,2]oxazolo[4,5-c]quin-oline-8-carboxamide] | 403 nM | 4940 nM | – | – |
| C[C@H]1OCc2c1c(N)nc1ccc(C(=O)N(C)[C@@H]3COCc4cc(Br)ccc43)cc21 (single isomer, unassigned) [Example 394] | 25 nM | 1440 nM | – | – |
| CN(C(=O)c1cc2c3c(c(N)nc2cn1)COC3)[C@@H]1CCc2cc(OC(F)(F)F)ccc21 (single isomer, unassigned) [Example 341] | 184 nM | 6240 nM | – | – |
| CCOc1ccc2c(c1)OC[C@H]2N(C)C(=O)c1cc2c3c(c(N)nc2cn1)COC3 [Example 674, 4-amino-N-((3S)-6-ethoxy-2,3-dihydro-1-benzofuran-3-yl)-N-methyl-1,3-dihydrofuro[3,4-c][1,7]naphthyridine-8-carboxamide] | 156 nM | 8610 nM | – | – |
| CN(C(=O)c1cc2c(nc1Cl)nc(N)c1cnn(C)c12)[C@@H]1COCc2cc(C(F)(F)F)ccc21 [Example 296, 4-amino-7-chloro-N,1-dimethyl-N-((4S)-7-(trifluoromethyl)-3,4-dihydro-1H-2-benzopyran-4-yl)-1H-pyrazolo[4,3-c][1,8]naph-thyridine-8-carboxamide] | 8 nM | 159 nM | – | – |
| CN(C(=O)c1ccc2nc(N)c3cnn(C)c3c2c1)[C@@H]1COc2cc(C3=CCCOC3)ccc21 [Example 634, 4-amino-N-((3S)-6-(5,6-dihydro-2H-pyran-3-yl)-2,3-dihydro-1-benzofuran-3-yl)-N,1-dimethyl-1H-pyrazolo[4,3-c]quinoline-8-carboxamide] | 8 nM | 524 nM | – | – |
| CN(C(=O)c1cc2c(cc1F)nc(N)c1cnn(C)c12)[C@@H]1COc2cc(S(C)(=O)=O)ccc21 (single isomer, unassigned) [Example 378] | 10 nM | 239 nM | – | – |
| CN(C(=O)c1cc2c3c(c(N)nc2cc1F)COC3)C1COc2ncc(C(F)(F)F)cc21 [Example 212, 4-amino-7-fluoro-N-methyl-N-((3R)-5-(trifluoromethyl)-2,3-dihydrofuro[2,3-b]pyridin-3-yl)-1,3-dihydrofuro[3,4-c]-quinoline-8-carboxamide and 4-amino-7-fluoro-N-methyl-N-((3S)-5-(trifluoromethyl)-2,3-dihydrofuro[2,3-b]pyridin-3-yl)-1,3-dihydrofuro[3,4-c]quin-oline-8-carboxamide] | 495 nM | 10700 nM | – | – |
| CN(C(=O)c1ccc2nc(N)c3cnn(C)c3c2c1)[C@H]1CCc2cc(Br)ccc21 (single isomer, unassigned) [Example 369] | 519 nM | 4130 nM | – | – |
